Measurements: PubChem BioAssay AID504345 (Broad Institute, 2011)
The source made the active and inactive calls.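 Rule for the calls: active = fitted curve climbs past 10% caspase activation, relative to the positive control, at or below the top valid tested dose; inactive = the rest, including activity in the opposite direction.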

Test system: not listed separately
Assay: caspase activation in A1-dependent BIM-primed MEFs, dose response, Bcl2-A1 inhibitor project, cell-based, MEF A1-2A-BIM, luminescence, dry powder, set 2 (AID 504345)
Settings: MEF A1-2A-BIM cells, caspase 3/7 luminescence; at 35 µM (top of the series)
In the case of `Cc1ccc(Sc2cc(=O)n(C)c3ccccc23)cc1`, the caspase activation is reported as -11.4% (inactive).
With `O=C(Oc1cccc(/C=N/Nc2nc(Nc3ccccc3)nc(N3CCOCC3)n2)c1)c1ccco1` the caspase activation was 6.44% (inactive).
For `Cn1c(=O)c([N+](=O)[O-])c(Nc2ccc(Cl)cc2)c2ccccc21`, the caspase activation was -1.07% (inactive).
For `C/C1=C/C(=O)O[C@@H]2C[C@@H](CC[C@H](C)/C=C\CC1)O[C@@](O)(C1CSC(=O)N1)C2` (stereo partly specified), the caspase activation was 9.53% (inactive).
For `Cn1c(=O)c([N+](=O)[O-])c(Oc2ccccc2)c2ccccc21`, the caspase activation was 4.18% (inactive).
With `O=c1oc2ccccc2c(N2CCCCC2)c1[N+](=O)[O-]` the caspase activation was -1.93% (inactive).
For `CCOCCCNc1c([N+](=O)[O-])c(=O)n(C)c2ccccc12`, the caspase activation was 2.29% (inactive).
For `Cc1ccc(Sc2c([N+](=O)[O-])c(=O)oc3ccccc23)cc1`, the caspase activation was -5.88% (inactive).
For `O=c1oc2ccccc2c(Nc2cc(Cl)cc(Cl)c2)c1[N+](=O)[O-]`, the caspase activation was -2.92% (inactive).
For `CN1C(=O)C(C)(C)N(Cc2ccccc2)c2ccccc21`, the caspase activation was 0.119% (inactive).
For `Cc1ccc(Nc2c([N+](=O)[O-])c(=O)n(C)c3ccccc23)cc1`, the caspase activation was -2.07% (inactive).
For `Cc1ccc(Nc2c([N+](=O)[O-])c(=O)oc3ccccc23)cc1`, the caspase activation was 1.97% (inactive).
With `O=c1oc2ccccc2c(Sc2ccccc2)c1[N+](=O)[O-]` the caspase activation was -9.2% (inactive).
In the case of `CCSc1c([N+](=O)[O-])c(=O)oc2ccccc12`, the caspase activation is reported as -6.49% (inactive).
In the case of `O=[N+]([O-])c1cnc2ccccc2c1Sc1ccccc1`, the caspase activation is reported as -2.86% (inactive).
For `O=c1oc2ccccc2c(Cl)c1[N+](=O)[O-]`, the caspase activation was -8.87% (inactive).
For `CCOC(=O)N1CCN(c2c([N+](=O)[O-])c(=O)n(C)c3ccccc23)CC1`, the caspase activation was -2.42% (inactive).

Test system: MEF A1-2A-BIM cells, caspase 3/7 luminescence
Assay: as above
Settings: not given
`Cn1c(=O)c([N+](=O)[O-])c(Cl)c2ccccc21` showed an AC10 of 0.632 µM.
`Cc1ccc(Sc2c([N+](=O)[O-])c(=O)n(C)c3ccccc23)cc1` gave an AC10 of 4.06 µM.
`Cc1ccc(Sc2c([N+](=O)[O-])cnc3ccccc23)cc1` gave an AC10 of 8.65 µM.
Work on `Cn1c(=O)c([N+](=O)[O-])c(-n2cnc3ccccc32)c2ccccc21` yielded an AC10 of 9.42 µM.
